Measurements reported in PMC5706701, “Development of a homogenous high-throughput assay for inositol hexakisphosphate kinase 1 activity” (PLoS ONE, 2017).
Where a name gives a salt, the structure may show the parent alone. Read-outs that look alike come from different tables or passages of the source.

Biological target: T1, Human IP6K1 (Homo sapiens, UniProt Q92551)
T1 construct: GST (N, cleaved yes); made in house; host or cells: C43 E. coli, pGEX-6P-2
Assay: IP6K1 high-throughput screen of the Sigma LOPAC (ADP-Glo Max, single point);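 note: final compound concentration 10µM in 5% DMSO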
Assay type: biochemical

[1] = LOPAC single-point screen, ADP-Glo Max luminescence raw signal per well
[2] = LOPAC single-point screen, Z-score relative to plate average and StDev
[3] = Sigma LOPAC single-point screen, ADP-Glo Max raw signal per well
[4] = Sigma LOPAC single-point screen, Z-score from plate average and StDev
[5] = LOPAC single-point screen, ADP-Glo Max raw signal per well
[6] = LOPAC single-point screen, Z-score against plate average and StDev
[7] = LOPAC single-point screen, Z-score from raw signal with plate average and StDev

T1 sequence (Q92551 whole entry): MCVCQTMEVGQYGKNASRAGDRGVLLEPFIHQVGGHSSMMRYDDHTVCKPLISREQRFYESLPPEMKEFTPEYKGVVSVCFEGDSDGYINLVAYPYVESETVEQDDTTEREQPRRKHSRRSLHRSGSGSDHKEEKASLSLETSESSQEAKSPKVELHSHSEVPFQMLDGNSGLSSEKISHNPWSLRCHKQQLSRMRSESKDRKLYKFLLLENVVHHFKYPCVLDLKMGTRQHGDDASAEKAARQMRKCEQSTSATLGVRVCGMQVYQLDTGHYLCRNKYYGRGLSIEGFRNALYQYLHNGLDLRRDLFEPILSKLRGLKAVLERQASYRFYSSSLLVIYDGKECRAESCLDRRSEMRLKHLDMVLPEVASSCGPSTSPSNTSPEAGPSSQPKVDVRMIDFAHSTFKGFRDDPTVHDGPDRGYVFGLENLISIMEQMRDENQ

Structure (SMILES)	Raw Signal [5]	Z-score [6]	Z-score [7]	other results
C=CCN1CC[C@]23c4c5ccc(O)c4O[C@@H]2/C(=N/N=C2\CC[C@@]4(O)C6Cc7ccc(O)c8c7[C@@]4(CCN6CC=C)[C@@H]2O8)CC[C@@]3(O)C1C5.Cl.Cl [Naloxonazine dihydrochloride]	–	–	–	Raw Signal [1]: 51290; Z-score [2]: -0.5215
C=CCN1CC[C@]23c4c5ccc(O)c4O[C@H]2/C(=N/NC(=O)c2ccccc2)CC[C@@]3(O)[C@H]1C5 [Naloxone benzoylhydrazone]	–	–	–	Raw Signal [3]: 57821; Z-score [4]: 0.5759
C=CCN1CC[C@]23c4c5ccc(O)c4O[C@H]2C(=O)CC[C@@]3(O)[C@H]1C5 [Naloxone hydrochloride]	55041	0.1088	–	–
O=C1CC[C@@]2(O)[C@H]3Cc4ccc(O)c5c4[C@@]2(CCN3CC2CC2)[C@H]1O5 [Naltrexone hydrochloride]	52231	–	-0.3634	–
Oc1ccc2c3c1O[C@H]1c4oc5ccccc5c4C[C@@]4(O)[C@@H](C2)N(CC2CC2)CC[C@]314 [Naltriben methanesulfonate]	55337	0.1585	–	–
Oc1ccc2c3c1O[C@H]1c4[nH]c5ccccc5c4C[C@@]4(O)[C@@H](C2)N(CC2CC2)CC[C@]314 [Naltrindole hydrochloride]	53741	–	-0.1096	–
c1ccc2c(CC3=NCCN3)cccc2c1 [Naphazoline hydrochloride]	52798	–	-0.2681	–
CN(C)C(=O)Oc1cccc([N+](C)(C)C)c1 [Neostigmine bromide]	55937	0.2593	–	–
O=C(CCNNC(=O)c1ccncc1)NCc1ccccc1 [Nialamide]	52793	–	-0.2689	–
COC(=O)C1=C(C)NC(C)=C(C(=O)OCCN(C)Cc2ccccc2)C1c1cccc([N+](=O)[O-])c1 (stereo not shown) [Nicardipine hydrochloride]	–	–	–	Raw Signal [1]: 66364; Z-score (LOPAC single-point screen, Z-score from plate average and StDev): 2.011
O=C(Nc1ccc([N+](=O)[O-])cc1Cl)c1cc(Cl)ccc1O [Niclosamide]	53914	-0.08057	–	–
COC(=O)C1=C(C)NC(C)=C(C(=O)OC)C1c1ccccc1[N+](=O)[O-] [Nifedipine]	–	–	–	Raw Signal [3]: 59653; Z-score [4]: 0.8837
O=C(O)c1cccnc1Nc1cccc(C(F)(F)F)c1 [Niflumic acid]	–	–	–	Raw Signal [1]: 47033; Z-score [2]: -1.237
CC1(C)NC(=O)N(c2ccc([N+](=O)[O-])c(C(F)(F)F)c2)C1=O [Nilutamide]	–	–	–	Raw Signal [3]: 62066; Z-score [4]: 1.289
CS(=O)(=O)Nc1ccc([N+](=O)[O-])cc1Oc1ccccc1 [Nimesulide]	51877	–	-0.4228	–
COCCOC(=O)C1=C(C)NC(C)=C(C(=O)OC(C)C)C1c1cccc([N+](=O)[O-])c1 (stereo not shown) [Nimodipine]	55940	0.2599	–	–
Cc1ncc(CNC(=O)N(CCCl)N=O)c(N)n1 [Nimustine hydrochloride]	54692	0.05015	–	–
CNCCC(Oc1ccccc1OC)c1ccccc1 (stereo not shown) [Nisoxetine hydrochloride]	–	–	–	Raw Signal: 55675; Z-score: 0.2153
CCOC(=O)C1=C(C)NC(C)=C(C(=O)OC)C1c1cccc([N+](=O)[O-])c1 (stereo not shown) [Nitrendipine]	–	–	–	Raw Signal [3]: 58110; Z-score [4]: 0.6245
COC(=O)Nc1nc2ccc(C(=O)c3cccs3)cc2[nH]1 [Nocodazole]	–	–	–	Raw Signal [3]: 59128; Z-score [4]: 0.7955
CN1Cc2c(N)cccc2C(c2ccccc2)C1 (stereo not shown) [Nomifensine maleate]	56397	0.3366	–	–
O=C1OC(=O)[C@H]2[C@@H]1[C@@H]1CC[C@H]2O1 [Norcantharidin]	52142	–	-0.3783	–
CNCCC=C1c2ccccc2CCc2ccccc21 [Nortriptyline hydrochloride]	54505	0.01873	–	–
COc1ccc2c(c1OC)C(=O)O[C@@H]2[C@H]1c2c(cc3c(c2OC)OCO3)CCN1C.Cl [Noscapine hydrchloride]	53510	–	-0.1485	–
CC(CCc1ccccc1)NC(C)C(O)c1ccc(O)cc1 (stereo not shown) [Nylidrin hydrochloride]	56232	0.3089	–	–
Nc1nc(OCc2ccccc2)c2nc[nH]c2n1 [O6-benzylguanine]	56623	–	-0.2272	–
COc1ccc2[nH]cc(CCN)c2c1.Cl [O-Methylserotonin hydrochloride]	53655	–	-0.1241	–
N[C@@H](COP(=O)(O)O)C(=O)O [O-Phospho-L-serine]	–	–	–	Raw Signal [3]: 59842; Z-score [4]: 0.9155
O=c1onc2cnc3ccccc3n12 [ODQ]	–	–	–	Raw Signal [3]: 60819; Z-score [4]: 1.08
